From US20110015119A1, “NOVEL SEMI-SYNTHETIC GLYCOPEPTIDES AS ANTIBACTERIAL AGENTS” (LEAD THERAPEUTICS, INC., priority 2009, published 2011)
Values after ≈ are worked out from the molar mass of the structure shown. Like-named read-outs stand apart in the source and are kept apart here.

Assays:
Assay type in all cases: cell-based
[1] = test system: Staphylococcus epidermidis 831 (MRSE); experiment: MIC by broth microdilution, SE 831; conditions: read-out: MIC SE 831
Protocol: (§1) Antibacterial activity in vitro is investigated by broth microdilution method in Meuller-Hinton broth as recommended by NCCLS. All strains tested are clinical isolates either sensitive or resistant to natural glycopeptides. MIC values were determined using the CLSI-recommended broth microdilution procedure (Clinical and Laboratory Standards Institute, Methods for Dilution Antimicrobial Susceptibility Tests for Bacteria That Grow Aerobically; Approved Standard-Seventh Edition.). Automated liquid handlers (Multidrop 384, Labsystems, Helsinki, Finland; Biomek 2000 and Multimek 96, Beckman Coulter, Fullerton Calif.) were used to conduct serial dilutions and liquid transfers. The MIC value for vancomycin is given for comparison. The abbreviations for organisms tested are as follow: SA 100—Staphylococcus aureus 100 (ATCC 29213); SA 757—Staphylococcus aureus 757 (MRSA); SA 2012—Staphylococcus aureus 2012 (VISA); SE 835—Staphylococcus epidermidis 835; SE 831—Staphylococcus epidermidis 831 (MRSE); EFc 101—Enterococcus faecalis 101 (ATCC 29212); EFc 848—Enterococcus faecalis 848 (VRE, Van A); EFcm 800—Enterococcus faecium 800; EFcm 752—Enterococcus faecium 752 (VRE, Van A); SPNE 1195—Streptococcus pneumoniae 1195 (ATCC 49619); SPY 712—Streptococcus pyogenes 712.

[2] = test system: Staphylococcus aureus 2012 (VISA); experiment: MIC by broth microdilution, SA 2012; conditions: class symbols
Protocol: as §1

[3] = test system: Enterococcus faecium 800; experiment: MIC by broth microdilution, EFcm 800
Protocol: as §1

[4] = test system: Staphylococcus aureus 757 (MRSA); experiment: MIC by broth microdilution, SA 757; conditions: read-out: MIC SA 757
Protocol: as §1

[5] = test system: Enterococcus faecalis 101 (ATCC 29212); experiment: MIC by broth microdilution, EFc 101; conditions: class symbols
Protocol: as §1

[6] = test system: Enterococcus faecalis 848 (VRE, Van A); experiment: MIC by broth microdilution, EFc 848; conditions: class symbols
Protocol: as §1

[7] = test system: Staphylococcus epidermidis 835; experiment: MIC by broth microdilution, SE 835
Protocol: as §1

[8] = test system: Streptococcus pneumoniae 1195 (ATCC 49619); experiment: MIC by broth microdilution, SPNE 1195
Protocol: as §1

[9] = test system: Streptococcus pyogenes 712; experiment: MIC by broth microdilution, SPY 712
Protocol: as §1

[10] = test system: Enterococcus faecium 752 (VRE, Van A); experiment: MIC by broth microdilution, EFcm 752; conditions: class symbols
Protocol: as §1

[11] = test system: Staphylococcus aureus 100 (ATCC 29213); experiment: MIC by broth microdilution, SA 100
Protocol: as §1

[12] = Staphylococcus epidermidis, MRSE
[13] = Staphylococcus aureus, VISA, read-out: MIC SA 2012, Staphylococcus aureus 2012 (VISA)
[14] = Enterococcus faecium, 800, read-out: MIC E FCM 800
[15] = Enterococcus faecalis, ATCC29212, read-out: MIC E FC 101, Enterococcus faecalis 101 (ATCC 29212)
[16] = Enterococcus faecalis, VRE, read-out: MIC E FC 848, Enterococcus faecalis 848 (VRE, Van A)
[17] = Staphylococcus epidermidis, 835, read-out: MIC SE 835
[18] = Streptococcus pneumoniae, ATCC49619, read-out: MIC S PNE 1195
[19] = Streptococcus pyogenes, 712, read-out: MIC S PYO 712
[20] = Enterococcus faecium, VRE, read-out: MIC E FCM 752, Enterococcus faecium 752 (VRE, Van A)
[21] = Staphylococcus aureus, ATCC29213, read-out: MIC SA 100

SMILES	MIC [1, 12] [µg/mL]	MIC [2, 13] [µg/mL]	MIC [3, 14] [µg/mL]	MIC ([4]; Staphylococcus aureus, MRSA) [µg/mL]	MIC [5, 15] [µg/mL]	MIC [6, 16] [µg/mL]	MIC [7, 17] [µg/mL]	MIC [8, 18] [µg/mL]	MIC [9, 19] [µg/mL]	MIC [10, 20] [µg/mL]	MIC [11, 21] [µg/mL]	other results
CCCCCOc1ccc(S(=O)(=O)NCCCCNCc2c(O)cc3c(c2O)-c2cc(ccc2O)[C@H]2NC(=O)[C@@H]4NC(=O)[C@H](CC(N)=O)NC(=O)[C@H](NC(=O)[C@@H](CC(C)C)NC)[C@H](O)c5ccc(c(Cl)c5)Oc5cc4cc(c5O[C@@H]4O[C@H](CO)[C@@H](O)[C@H](O)[C@H]4O[C@H]4C[C@](C)(NC(=O)CN)[C@H](O)[C@H](C)O4)Oc4ccc(cc4Cl)[C@@H](O)[C@H](NC2=O)C(=O)N[C@@H]3C(=O)O)cc1 (atropisomer, axis not shown) [Compound 346]	–	–	–	–	–	–	–	–	–	–	–	MIC ([1]; Staphylococcus epidermidis 831 (MRSE), class symbols): 0.01 to 0.5 µg/mL (≈ 0.00546 to 0.273 µM); MIC ([2]; Staphylococcus aureus 2012 (VISA), read-out: MIC SA 2012): 0.5 to 1 µg/mL (≈ 0.273 to 0.546 µM); MIC ([3]; Enterococcus faecium 800, class symbols, read-out: MIC E FCM 800): 0.01 to 0.5 µg/mL (≈ 0.00546 to 0.273 µM); MIC ([4]; Staphylococcus aureus 757 (MRSA), class symbols): 0.01 to 0.5 µg/mL (≈ 0.00546 to 0.273 µM); MIC ([5]; ATCC29212, Enterococcus faecalis 101 (ATCC 29212), read-out: MIC E FC 101): 0.5 to 1 µg/mL (≈ 0.273 to 0.546 µM); MIC ([6]; Enterococcus faecalis 848 (VRE, Van A), read-out: MIC E FC 848): > 16 µg/mL; MIC ([7]; Staphylococcus epidermidis 835, class symbols, read-out: MIC SE 835): 0.01 to 0.5 µg/mL (≈ 0.00546 to 0.273 µM); MIC ([8]; ATCC49619, Streptococcus pneumoniae 1195 (ATCC 49619), class symbols, read-out: MIC S PNE 1195): 0.01 to 0.5 µg/mL (≈ 0.00546 to 0.273 µM); MIC ([9]; Streptococcus pyogenes 712, class symbols, read-out: MIC S PYO 712): 0.01 to 0.5 µg/mL (≈ 0.00546 to 0.273 µM); MIC ([10]; Enterococcus faecium 752 (VRE, Van A), read-out: MIC E FCM 752): 8 to 16 µg/mL (≈ 4.36 to 8.73 µM); MIC ([11]; ATCC29213, Staphylococcus aureus 100 (ATCC 29213), class symbols, read-out: MIC SA 100): 0.01 to 0.5 µg/mL (≈ 0.00546 to 0.273 µM)
CCCCCOCCNC(=O)Oc1cc(O)c2c(c1)[C@@H](C(=O)O)NC(=O)[C@H]1NC(=O)[C@H](NC(=O)[C@@H]3NC(=O)[C@H](CC(N)=O)NC(=O)[C@H](NC(=O)[C@@H](CC(C)C)NC)[C@H](O)c4ccc(c(Cl)c4)Oc4cc3cc(c4O[C@@H]3O[C@H](CO)[C@@H](O)[C@H](O)[C@H]3O[C@H]3C[C@](C)(N)[C@H](O)[C@H](C)O3)Oc3ccc(cc3Cl)[C@H]1O)c1ccc(O)c-2c1 (atropisomer, axis not shown) [Compound 348]	4 to 8 (≈ 2.49 to 4.98 µM)	8 to 16 (≈ 4.98 to 9.96 µM)	1 to 2 (≈ 0.622 to 1.24 µM)	2 to 4 (≈ 1.24 to 2.49 µM)	2 to 4 (≈ 1.24 to 2.49 µM)	> 16	4 to 8 (≈ 2.49 to 4.98 µM)	0.01 to 0.5 (≈ 0.00622 to 0.311 µM)	0.5 to 1 (≈ 0.311 to 0.622 µM)	> 16	2 to 4 (≈ 1.24 to 2.49 µM)	–
CCCCCCOc1ccc(S(=O)(=O)NCCCCCCNC(=O)Oc2cc(O)c3c(c2)[C@@H](C(=O)O)NC(=O)[C@H]2NC(=O)[C@H](NC(=O)[C@@H]4NC(=O)[C@H](CC(N)=O)NC(=O)[C@H](NC(=O)[C@@H](CC(C)C)NC)[C@H](O)c5ccc(c(Cl)c5)Oc5cc4cc(c5O[C@@H]4O[C@H](CO)[C@@H](O)[C@H](O)[C@H]4O[C@H]4C[C@](C)(N)[C@H](O)[C@H](C)O4)Oc4ccc(cc4Cl)[C@H]2O)c2ccc(O)c-3c2)cc1 (atropisomer, axis not shown) [Compound 349]	0.01 to 0.5 (≈ 0.00546 to 0.273 µM)	0.5 to 1 (≈ 0.273 to 0.546 µM)	0.01 to 0.5 (≈ 0.00546 to 0.273 µM)	0.01 to 0.5 (≈ 0.00546 to 0.273 µM)	0.01 to 0.5 (≈ 0.00546 to 0.273 µM)	4 to 8 (≈ 2.18 to 4.37 µM)	0.01 to 0.5 (≈ 0.00546 to 0.273 µM)	0.01 to 0.5 (≈ 0.00546 to 0.273 µM)	0.01 to 0.5 (≈ 0.00546 to 0.273 µM)	0.5 to 1 (≈ 0.273 to 0.546 µM)	0.01 to 0.5 (≈ 0.00546 to 0.273 µM)	–
CCCCCCc1ccc(S(=O)(=O)NCCCCCNC(=O)Oc2cc(O)c3c(c2)[C@@H](C(=O)O)NC(=O)[C@H]2NC(=O)[C@H](NC(=O)[C@@H]4NC(=O)[C@H](CC(N)=O)NC(=O)[C@H](NC(=O)[C@@H](CC(C)C)NC)[C@H](O)c5ccc(c(Cl)c5)Oc5cc4cc(c5O[C@@H]4O[C@H](CO)[C@@H](O)[C@H](O)[C@H]4O[C@H]4C[C@](C)(N)[C@H](O)[C@H](C)O4)Oc4ccc(cc4Cl)[C@H]2O)c2ccc(O)c-3c2)cc1 (atropisomer, axis not shown) [Compound 350]	0.01 to 0.5 (≈ 0.00555 to 0.278 µM)	0.01 to 0.5 (≈ 0.00555 to 0.278 µM)	0.01 to 0.5 (≈ 0.00555 to 0.278 µM)	0.01 to 0.5 (≈ 0.00555 to 0.278 µM)	0.01 to 0.5 (≈ 0.00555 to 0.278 µM)	4 to 8 (≈ 2.22 to 4.44 µM)	0.01 to 0.5 (≈ 0.00555 to 0.278 µM)	0.01 to 0.5 (≈ 0.00555 to 0.278 µM)	0.01 to 0.5 (≈ 0.00555 to 0.278 µM)	1 to 2 (≈ 0.555 to 1.11 µM)	0.01 to 0.5 (≈ 0.00555 to 0.278 µM)	–
